From patent publication US5330992A, “1-cyclopropyl-4-pyridyl-quinolinones” (priority 1992, dated 1994)

What was measured:
P388 leukemia = test: In vivo antitumor assay, P388(ip); settings: P388(ip), qd 1,5,9; for ILS %: increased life span; for LOG KILL: log10 cell kill
Description: (§1) Mice: Inbred: C3H/He and NCR-nu; and Hybrids: B6D2Fl (C57BL/6 females X DBA/2 males, CD2Fl (Balb/c females X DBS/2 males) and B6x C3fl (C57BL/6 x C3H) were bred at Wayne State University from strained obtained from the Frederick Cancer Research Facility, Frederick, Md. or purchased from commercial suppliers.
(§2) Tumors: Murine Tumor: P388 and an adriamycin-resistant (ADR) subline P388/ADR leukemia and the following transplantable solid tumors of mice were used for in Vivo testing: B16 melanoma (B16), pancreatic ductal adenocarcinoma No. 03 (Panc 03), colon adenocarcinoma No. 38 (colo 38), mammary ductal adenocarcinoma No. 16/C (Mam16) and an adriamycin-resistantsubline Mam16C/ADR. Human tumor: A single human tumor, mammary carcinoma MX-1 (MX1) was used for in vivo testing. All tumors are in the Developmental Therapeutics Program frozen tumor respository, maintained by the Biological Testing Branch, Frederick Md. Each has a detailed description, code identification number, and list of references at the National Tumor Repository. Murine tumors were maintained in the mouse strain of origin and were transplanted in the appropriate F1 hydrid (or the strain of origin) for therapy trials. Human mammary carcinoma MX-1 MX1) was maintained as a subcutaneous implant in either athymic Swiss (Cr: NIH(S)-nu) or athymic random bred (NCR-nu) mice and transplanted in NCR-nu for therapy trials.
(§3) For P388 and P388/ADR leukemia studies the tumor cells were implanted either IP or intravenously (IV) on day zero and treatment was started on day one. For B16 melanoma (B16) studies, the tumor cells were implanted IP on day zero and treatment was started on day one. Tirered controls were also included to facilitate the calculation of tumor cell kill. For mammary carcinoma MX-1 studies, tumors were implanted with 1) subcutaneously (sc) (14-mg fragment of s.c. donor tumor) in the axillary region or 2) under the subrenal capsule (src) (10×10×10 ocular micrometer unit fragment of s.c. donor tumor). Treatment started on the day after subrenal capsule tumor implant or when the subcutaneous tumor implant had reached 100-700 mg.
(§4) Quantitative end points used assess antitumor activity included % Increased Life Span (% ILS), Tumor Cell Kill (Log10 kill), and Tumor Growth Inhibition (T/C). Long Term Survivors (45 or 60 day) were excluded from calculations of % ILS and Tumor Cell Kill.
(§5) Endpoints were calculated as follows: % ILS [formula] where Dt is the median day of death for treated and Dc is the median day of death for control groups. A % ILS ≥20 or ≥25 for P388 and B16 intraperitoneal models, respectively, is indicative of a significant degree of antitumor activity. A % ILS ≥75 or ≥50 for P388 and B16 intraperitoneal models, respectively, is indicative of a high degree of antitumor activity and is the level used by National Cancer Institute to justify further development if other requirements are met (termed DN-2 level activity). Minimum quantitative activity limits for additional P388 models (e.g. P388/ADR and P388, IJV) have not been defined. However, the activity limits specified for the intraperitoneal models may be applied as in the majority of instances these models are found to be signficantly […] challenging.
(§6) The log10 cell kill was calculated from the following formula: [formula] where T-C is the tumor difference in the median day of death between the treated (T) and the control (C) groups and Td is the tumor doubling time (in days), the latter estimated from the best fit straight line from a log-linear growth plot of the control-group tumors in exponential growth. The conversion of the T-C values to log10 cell kill is possible because the Td for tumors regrowing post-treatment approximated the Td values of the tumors in untreated control mice.

[1] = In vivo antitumor assay, P388(ip); settings: mouse, in vivo
Description: as §1, §2, §3, §4, §5, §6

[2] = system: colon adenocarcinoma No. 38 (colo 38); test: In vivo antitumor assay, Colo38(sc); set-up: species or system mouse; settings: drug route iv, Ex 26 qd 3-5 bid 6-11, Ex 30 and 33 qd 3-11
Description: as §1, §2
(§7) Chemotherapy: For pancreatic ductal adenocarcinoma No. 3, colon adenocarcinoma No. 38 (colo38), lung carcinoma No. 12 (LC12) and both adriamycin-sensitive (RP) and -resistant ADR) mammary ductal adenocarcinoma No. 16 (Mam16) tumors, the following methods were used to help ensure a more uniform tumor burden per mouse (thus reducing the requirement for greater numbers of mice per group), bilateral tumor implants were used. The animals necessary to begin an experiment were pooled, implanted bilaterally s.c. on day zero with 30-60-mg tumor fragments using a 12-gauge trocar, and again pooled before randomization to the various treatment and control groups. Chemotherapy was started within three days after tumor implantation while the number of cells per mouse was relatively small (1×10^7 […]).
as §4
(§8) Tumors were measured with a caliper once or twice weekly (as needed) until either tumors exceeded 1600 mg or cure was assured. Tumor weights were estimated from two-dimensional measurements: Tumor Weight (mg)=(a×b^2) / 2, where a and b are the tumor length and width (nun) respectively. Measurements were carried out simultaneously in both treatment and control groups. When the control group tumors reached approximately 750-1500 mg in size (median of group), the median tumor weight of each group was determined (including zeros). The T/C value in percent is an indiation of antitumor effectiveness. The % T/C was calculated from the following formula for solid murine tumor models: [formula] where T and C are median tumor weights of the treatment and control groups, respectively. A T/C equal to or less than 42% is considered significant antitumor activity. A T/C value <10% is indicative of a high degree of antitumor activity and is the level used by National Cancer Institute to justify further development if other requirements are met (termed DN-2 level activity). By convention the T/C value for the mammary carcinoma MX-1 models is calculated by the parameter of change in tumor weight. The % T/C was calculated from the following formula for MX-1 models [formula] where ΔT and ΔC are the change in mean tumor weight of the test and control groups, respectively, and T (initial) is the initial mean tumor weight of the test group. […] A reproducible % T/C ≤10 is considered significant activity.

[3] = In vivo antitumor assay, Colo38(sc); set-up: species or system mouse; settings: mouse, in vivo, drug route iv, Ex 26 qd 3-5 bid 6-11, Ex 30 and 33 qd 3-11
Description: as §1, §2, §7, §4, §8

[4] = P388(ip), drug route ip, qd 1,5,9
[5] = P388(ip), drug route iv, qd 1,5,9

Compound | ILS % (P388 leukemia; drug route ip) [%] | LOG KILL (P388 leukemia; drug route ip) | ILS % (P388 leukemia; drug route iv) [%] | LOG KILL (P388 leukemia; drug route iv) | MTD [1, 4] [mg/kg] | MTD [1, 5] [mg/kg] | T/C % [2] [%] | MTD [3] [mg/kg] | MTD ([1]; iv) [mg/kg]
Cc1cc(-c2c(F)cc3c(=O)c(Cc4c(O)cccc4O)cn(C4CC4)c3c2F)cc(C)n1 [Example 26, 1-Cyclopropyl-6,8-difluoro-7-[2,6-dimethyl-4-pyridinyl]-3-[2,6-dihydroxyphenylmethyl]-1,4-dihydroquinoline-4-one] | 100 | 7.3 | 80 | 5.8 | 12 | 15 | 46 | 30 | 
Cc1cc(-c2c(F)cc3c(=O)c(Cc4ccccc4O)cn(C4CC4)c3c2F)cc(C)n1 [Example 30] | 120 | 8.8 | 20 | 1.5 | 456 | 120 | 42 | 148 | 
Cc1cc(-c2c(F)cc3c(=O)c(Cc4ccc(O)cc4O)cn(C4CC4)c3c2F)cc(C)n1 [Example 33] | 50 | 3.6 | 50 | 3.6 | 19 |  | > 100 | 33 | 37
